# Patent US20260191838A1, “COMBINATIONS COMPRISING A MENIN-MLL INHIBITOR AND A BCL-2 INHIBITOR” (JANSSEN PHARMACEUTICA NV, priority 2022, published 2026)
# Legend:
# [1] = test system: MOLM-13 tumors in NSG mice; test: Efficacy (survival) in disseminated MOLM-13 (KMT2A-rearranged) IV model in NSG mice; type: in vivo; details: NSG mice with established MOLM-13 tumors, 4 weeks treatment; azacitidine 2 mg/kg ip QD × 7, venetoclax 100 mg/kg po QD × 28, Compound 51 2 mg/kg po QD × 28 (Table 6)
# Method: 4) Efficacy of Menin-KMT2A Inhibitor in Combination with Venetoclax, and Optionally, Azacitidine, in MOLM-13 (KMT2A-Rearranged) IV Model in NSG Mice
# Compound 51 was formulated in purified pyrogen-free deionized water, pH 4.0 and prepared to reach a total volume of 8 mL/kg. Doses were adjusted by individual body weight each day. Working stocks of Compound 51 were prepared once per week for each study and stored at 25° C.
# Female NSG (NOD.Cg-Prkdc^scid Il2rg^tm1Wj1/SzJ) mice were used when they were approximately 6 to 8 weeks of age and weighed approximately 25 g. All animals could acclimate and recover from any shipping-related stress for a minimum of 7 days prior to experimental use. Autoclaved water and irradiated food were provided ad libitum, and the animals were maintained on a 12 hour light and dark cycle. Cages, bedding, and water bottles were autoclaved before use and changed weekly. The tissue culture and cell injection reagents are summarized below in Table 5.
# Tumor Model and Cell Culture Method
# Human AML MOLM-13 cells were cultured at 37° C., 5% CO2 in the indicated complete culture media (RPMI 1640+10% HI-FBS+2 mM L-glutamine+50 μg/ml Gentamycin). Cells were harvested while in logarithmic growth and resuspended in cold (4° C.) Roswell Park Memorial Institute (RPMI) 1640 in serum-free medium.
# For the disseminated MOLM-13 model, each mouse received 1×10^5 cells via IV injection in a total volume of 0.2 mL using a 26-gauge needle.
# Day 0 is the day of tumor cell implantation and study initiation.
# Mice bearing IV MOLM-13 xenograft tumors were randomly assigned to treatment groups 5 days post-tumor cell engraftment.
# Animals were monitored daily for clinical signs related to either compound toxicity or tumor burden (i.e., hind limb paralysis, lethargy, etc.).
# For survival assessment, results were plotted as the percentage survival against days post tumor implant. Negative clinical signs and/or ≥20% body weight loss was used as a surrogate endpoint for death. Median survival was determined utilizing Kaplan-Meier survival analysis. The percent increased life span (ILS) was calculated as: ((median survival day of treated group−median survival day of control group)/median survival day of control group)×100. Animals failing to reach the surrogate endpoint due to adverse clinical signs or death unrelated to treatment were censored for the survival assessment. As defined by NCI criteria, ≅25% ILS is considered biologically significant. (Johnson J I et al. Br J Cancer. 2001. 84(10), 1424-1431).
# Survival and body weight data were graphically represented utilizing Prism (Version 9). Statistical significance for body weights was evaluated as described above. Statistical significance was evaluated for Kaplan-Meier survival plots comparing therapeutic treatment group vs. appropriate vehicle-treated control using log-rank (Mantel-Cox) test in R software version 3.4.2. Differences between groups were considered significant when the p value was ≤0.05.
# The disseminated MOLM-13 model described above was used to examine the efficacy of menin-KMT2A-inhibitor (formulated as described above) in combination with venetoclax (formulated in polyethylene glycol [PEG]-400/Phosal50/dimethyl sulfoxide [DMSO]), and optionally azacitidine (formulated in 0.9% saline). Treatment with compound(s) was initiated 5 days after cell injection. Compound 51 was given in the morning, and venetoclax or azacitidine was given in the afternoon, approximately 6-8 hr apart.
# MOLM14 cells = test: Proliferation (spheroid) assay, MOLM14; type: cell-based; details: Homo sapiens, MOLM-14, 192 h, 8 days; read-out: spheroid assay_MOLM14 IC50
# Method: The anti-proliferative effect of menin/MLL protein/protein interaction inhibitor test compounds was assessed in human leukemia cell lines. The cell line MOLM14 harbors a MLL translocation and expresses the MLL fusion protein MLL-AF9, respectively, as well as the wildtype protein from the second allele. OCI-AML3 cells that carry the NPM1c gene mutation were also tested. […] KO-52 was used as a control cell line containing two MLL (KMT2A) wildtype alleles in order to exclude compounds that display general cytotoxic effects.
# MOLM14 cells were cultured in RPMI-1640 (Sigma Aldrich) supplemented with 10% heat-inactivated fetal bovine serum (HyClone), 2 mM L-glutamine (Sigma Aldrich) and 50 μg/ml gentamycin (Gibco). KO-52 and OCI-AML3 cell lines were propagated in alpha-MEM (Sigma Aldrich) supplemented with 20% heat-inactivated fetal bovine serum (HyClone), 2 mM L-glutamine (Sigma Aldrich) and 50 μg/ml gentamycin (Gibco).
# In order to assess the anti-proliferative effects, 200 MOLM14 cells, […] or 300 KO-52 cells were seeded in 200 μl media per well in 96-well round bottom, ultra-low attachment plates (Costar, catalogue number 7007). Cell seeding numbers were chosen based on growth curves to ensure linear growth throughout the experiment. Test compounds were added at different concentrations and the DMSO content was normalized to 0.3%. Cells were incubated for 8 days at 37° C. and 5% CO2. Spheroid like growth was measured in real-time by live-cell imaging (IncuCyteZOOM, Essenbio, 4× objective) acquiring images at day 8. Confluence (%) as a measure of spheroid size was determined using an integrated analysis tool.
# In order to determine the effect of the test compounds over time, the confluence in each well as a measure of spheroid size, was calculated. Confluence of the highest dose of a reference compound was used as baseline for the LC (Low control) and the confluence of DMSO treated cells was used as 0% cytotoxicity (High Control, HC).
# Absolute IC50 values were calculated as percent change in confluence as follows: • LC=Low Control: cells treated with e.g. 1 μM of the cytotoxic agent staurosporin, or e.g. cells treated with a high concentration of an alternative reference compound • HC═High Control: Mean confluence (%) (DMSO treated cells) • % Effect=100−(100*(Sample-LC)/(HC-LC))
# GraphPad Prism (version 7.00) was used to calculate the ICso. Dose-response equation was used for the plot of % Effect vs Log10 compound concentration with a variable slope and fixing the maximum to 100% and the minimum to 0%.
# MEIS1 mRNA = MEIS1 mRNA expression assay (Quantigene Singleplex) in MOLM14 cells; type: cell-based; details: Homo sapiens, MOLM-14, 48 h
# Method: 2b) MEIS1 mRNA Expression Assay
# MEIS1 mRNA expression upon treatment of compound was examined by Quantigene Singleplex assay (Thermo Fisher Scientific). This technology allows for direct quantification of mRNA targets using probes hybridizing to defined target sequences of interest and the signal is detected using a Multimode plate reader Envision (PerkinElmer). The MOLM14 cell line was used for this experiment. Cells were plated in 96-well plates at 3,750 cells/well in the presence of increasing concentrations of compounds. After incubation of 48 hours with compounds, cells were lysed in lysis buffer and incubated for 45 minutes at 55° C. Cell lysates were mixed with human MEIS1 specific capture probe or human RPL28 (Ribosomal Protein L28) specific probe as a normalization control, as well as blocking probes. Cell lysates were then transferred to the custom assay hybridization plate (Thermo Fisher Scientific) and incubated for 18 to 22 hours at 55° C. Subsequently, plates were washed to remove unbound materials followed by sequential addition of preamplifiers, amplifiers, and label probe. Signals (=gene counts) were measured with a Multimode plate reader Envision. IC50s were calculated by dose-response modelling using appropriate software. For all non-housekeeper genes response equal counts corrected for background and relative expression. For each sample, each test gene signal (background subtracted) was divided by the normalization gene signal (RPL28: background subtracted). Fold changes were calculated by dividing the normalized values for the treated samples by the normalized values for the DMSO treated sample. Fold changes of each target gene were used for the calculation of IC50s.
# Menin/MLL = biological target: T1, Menin/MLL (Homo sapiens, UniProt O00255, T541A); test: Menin/MLL homogenous time-resolved fluorescence (HTRF) assay; type: binding; details: 30 min incubation of test compound with terbium chelate-labeled menin
# T1 construct: Menin (a.a 1-610-6×his tag, 2.3 mg/mL in 20 mM Hepes)
# T1 sequence (O00255 with tags, fused parts or gaps T541A): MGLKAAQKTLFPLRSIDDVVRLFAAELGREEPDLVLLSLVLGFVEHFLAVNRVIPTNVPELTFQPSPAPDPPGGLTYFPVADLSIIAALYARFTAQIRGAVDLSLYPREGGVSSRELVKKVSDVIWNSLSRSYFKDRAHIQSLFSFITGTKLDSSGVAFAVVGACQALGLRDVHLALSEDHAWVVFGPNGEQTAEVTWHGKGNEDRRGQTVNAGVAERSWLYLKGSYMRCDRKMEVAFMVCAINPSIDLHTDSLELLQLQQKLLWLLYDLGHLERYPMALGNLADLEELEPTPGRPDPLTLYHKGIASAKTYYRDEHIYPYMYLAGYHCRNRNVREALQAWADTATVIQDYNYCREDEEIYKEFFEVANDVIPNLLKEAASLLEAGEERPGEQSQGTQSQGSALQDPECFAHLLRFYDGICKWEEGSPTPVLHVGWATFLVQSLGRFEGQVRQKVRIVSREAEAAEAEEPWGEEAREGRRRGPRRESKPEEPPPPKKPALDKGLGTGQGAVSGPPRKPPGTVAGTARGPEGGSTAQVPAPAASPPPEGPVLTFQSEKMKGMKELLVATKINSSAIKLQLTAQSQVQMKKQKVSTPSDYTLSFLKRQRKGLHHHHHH
# Method: 1) Menin/MLL Homogenous Time-Resolved Fluorescence (HTRF) Assay
# To an untreated, white 384-well microtiter plate was added 40 nL 200× test compound in DMSO and 4 μL 2× terbium chelate-labeled menin (vide infra for preparation) in assay buffer (40 mM Tris.HCl, pH 7.5, 50 mM NaCl, 1 mM DTT (dithiothreitol) and 0.05% Pluronic F-127). After incubation of test compound and terbium chelate-labeled menin for 30 min at ambient temperature, 4 μL 2×FITC-MBM1 peptide (FITC-β-alanine-[…]-NH2) (“FITC” means fluorescein isothiocyanate) in assay buffer was added, the microtiter plate centrifuged at 1000 rpm for 1 min and the assay mixtures incubated for 15 min at ambient temperature. The relative amount of menin-FITC-MBM1 complex present in an assay mixture is determined by measuring the homogenous time-resolved fluorescence (HTRF) of the terbium/FITC donor/acceptor fluorphore pair using an EnVision microplate reader (ex. 337 nm/terbium em. 490 nm/FITC em. 520 nm) at ambient temperature. The degree of fluorescence resonance energy transfer (the HTRF value) is expressed as the ratio of the fluorescence emission intensities of the FITC and terbium fluorophores (F^em 520 nm/F^em 490 nm). […]
# Compound potencies were determined by first calculating % inhibition at each compound concentration according to equation 1: […]
IC50 (MOLM14 cells) [nM],IC50 (MEIS1 mRNA) [nM],IC50 (Menin/MLL) [nM],SMILES,% ILS (increased life span) [1] [%]
–,–,0.237,CC(=O)N1CC2CC(N3CC(Cc4cn(-c5ccc(F)cc5C(=O)N(C)C(C)C)c5cncc(C)c45)C3)CC2C1 (stereo not shown) [Compound 294a],–
5,7,–,"COCC(=O)N1CCC(C(C)N2CCC(Cc3cn(-c4ccc(F)cc4C(=O)N(C)C(C)C)c4cncc(C)c34)C2)CC1 (single isomer, unassigned) [Compound 117a]",–

# Further lines, the molecule ahead of its results:
SMILES,IC50 (MOLM14 cells) [nM],IC50 (MEIS1 mRNA) [nM],IC50 (Menin/MLL) [nM],% ILS (increased life span) [1] [%]
"CC1(C)CCC(CN2CCN(c3ccc(C(=O)NS(=O)(=O)c4ccc(NCC5CCOCC5)c([N+](=O)[O-])c4)c(Oc4cnc5[nH]ccc5c4)c3)CC2)=C(c2ccc(Cl)cc2)C1 [Venetoclax, venetoclax, reference compound]",–,–,–,11
CC(=O)N1CCC(N2CC[C@H](Cc3cn(-c4ccc(F)cc4C(=O)N(C)C(C)C)c4cncc(C)c34)C2)CC1 [Compound 156],42,187,–,–
"CNC(=O)N1CCC(CN2CC[C@H](Cc3cn(-c4ccc(F)cc4C(=O)N(C)C(C)C)c4cncc(C)c34)C2)CC1 (single isomer, unassigned) [Compound 101]",41,7,–,–
"Nc1ncn([C@@H]2O[C@H](CO)[C@@H](O)[C@H]2O)c(=O)n1 [Azacitidine, azacitidine, reference compound]",–,–,–,37
Cc1cncc2c1c(CC1CN(CC3CCNC(=O)C3)C1)cn2-c1ccc(F)cc1C(=O)N(C)C(C)C (stereo not shown) [Compound 196],–,–,0.19,–
